One data set deals with T1, Adrenergic α1B (Rattus norvegicus, UniProt P15823).
T1 construct: Eurofins Cerep Panlabs (contract panel)
Nature of the data set: Safetyscreen: Adrenergic α1B. Format: binding. To be noted: read-out: % Inh. Adrenergic α1B.

For data set [1], the target named is T2, Protein Tyrosine Kinase, Insulin Receptor (Homo sapiens, UniProt P06213).
T2 construct: Eurofins Cerep Panlabs (contract panel)
Nature of the data set: Safetyscreen: Insulin Receptor kinase. It counts as biochemical. To be noted: read-out: % Inh. Protein Tyrosine Kinase, Insulin Receptor.

In data set [2] the target is T3, Serotonin (5-Hydroxytryptamine) 5-HT1A (Homo sapiens, UniProt P08908).
T3 construct: Eurofins Cereps Panlabs (contract panel)
T3 sequence (P08908 whole entry): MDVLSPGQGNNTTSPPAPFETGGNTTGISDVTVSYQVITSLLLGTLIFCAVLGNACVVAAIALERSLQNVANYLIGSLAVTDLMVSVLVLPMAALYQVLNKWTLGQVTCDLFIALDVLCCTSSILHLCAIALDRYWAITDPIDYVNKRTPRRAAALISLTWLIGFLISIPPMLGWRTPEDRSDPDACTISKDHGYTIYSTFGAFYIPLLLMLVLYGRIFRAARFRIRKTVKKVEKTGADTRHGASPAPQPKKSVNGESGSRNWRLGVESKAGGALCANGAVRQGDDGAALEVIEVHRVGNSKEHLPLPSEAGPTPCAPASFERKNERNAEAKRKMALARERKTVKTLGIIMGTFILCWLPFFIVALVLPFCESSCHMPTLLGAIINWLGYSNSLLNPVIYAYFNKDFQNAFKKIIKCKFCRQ
Put plainly: Safetyscreen: 5-HT1A. It counts as binding. The settings on record: read-out: % Inh. Serotonin (5-Hydroxytryptamine) 5-HT1A.

Data set [3] has as its target T4, Serotonin (5-Hydroxytryptamine) 5-HT2A (Homo sapiens, UniProt P28223).
T4 construct: Eurofins Cereps Panlabs (contract panel)
Nature of the data set: Safetyscreen: 5-HT2A. It counts as binding. The settings on record: read-out: % Inh. Serotonin (5-Hydroxytryptamine) 5-HT2A.

Data set [4] deals with T5, Peptidase, Angiotensin Converting Enzyme (Oryctolagus cuniculus, UniProt P12822).
T5 construct: Eurofins Cerep Panlabs (contract panel)
T5 sequence (P12822 34-1310): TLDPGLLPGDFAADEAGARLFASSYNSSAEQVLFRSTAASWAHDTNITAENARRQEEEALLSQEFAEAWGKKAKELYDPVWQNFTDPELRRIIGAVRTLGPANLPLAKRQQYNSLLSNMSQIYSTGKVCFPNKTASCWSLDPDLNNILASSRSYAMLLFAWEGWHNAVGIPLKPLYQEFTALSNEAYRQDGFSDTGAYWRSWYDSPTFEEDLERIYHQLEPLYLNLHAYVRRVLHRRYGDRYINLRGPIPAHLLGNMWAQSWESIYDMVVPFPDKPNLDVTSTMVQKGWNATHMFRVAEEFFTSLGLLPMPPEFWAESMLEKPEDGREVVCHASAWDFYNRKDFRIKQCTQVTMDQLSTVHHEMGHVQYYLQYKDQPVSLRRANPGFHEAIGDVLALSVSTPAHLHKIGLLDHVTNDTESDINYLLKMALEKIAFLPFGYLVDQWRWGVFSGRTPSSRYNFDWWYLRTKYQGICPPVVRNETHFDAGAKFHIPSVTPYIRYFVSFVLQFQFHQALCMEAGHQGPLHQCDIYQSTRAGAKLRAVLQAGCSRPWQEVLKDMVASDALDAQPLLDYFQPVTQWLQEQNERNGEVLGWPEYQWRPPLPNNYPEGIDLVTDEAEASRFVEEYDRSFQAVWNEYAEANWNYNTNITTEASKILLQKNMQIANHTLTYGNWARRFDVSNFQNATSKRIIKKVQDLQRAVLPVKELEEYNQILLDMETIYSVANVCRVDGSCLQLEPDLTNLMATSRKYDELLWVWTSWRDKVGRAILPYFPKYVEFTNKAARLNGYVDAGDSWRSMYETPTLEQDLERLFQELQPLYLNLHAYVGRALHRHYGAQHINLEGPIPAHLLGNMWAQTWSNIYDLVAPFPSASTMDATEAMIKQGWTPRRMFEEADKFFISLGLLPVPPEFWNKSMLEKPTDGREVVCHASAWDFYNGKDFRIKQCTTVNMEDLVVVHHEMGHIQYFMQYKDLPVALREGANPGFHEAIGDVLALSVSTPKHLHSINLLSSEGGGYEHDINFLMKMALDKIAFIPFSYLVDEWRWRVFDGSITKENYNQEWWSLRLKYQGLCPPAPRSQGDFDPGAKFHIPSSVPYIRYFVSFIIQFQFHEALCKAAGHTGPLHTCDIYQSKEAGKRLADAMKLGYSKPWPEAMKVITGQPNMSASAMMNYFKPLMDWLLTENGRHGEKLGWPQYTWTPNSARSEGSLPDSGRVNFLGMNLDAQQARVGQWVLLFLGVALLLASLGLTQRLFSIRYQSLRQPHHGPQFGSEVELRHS
Nature of the data set: Safetyscreen: ACE. Format: biochemical, rabbit. To be noted: read-out: % Inh. Peptidase, Angiotensin Converting Enzyme.

The next data set concerns SNU398 human HCC cells. Nature of the data set: AldeRed (Aldefluor) assay in SNU398 cells. It counts as cell-based.
The test system of a further data set is Phosphodiesterase PDE3. Nature of the data set: Safetyscreen: PDE3. The settings on record: 10 μM. It counts as biochemical, human.
A further data set has as its target T6, Glucocorticoid (Homo sapiens, UniProt P04150).
T6 construct: purchased Eurofins Cereps Panlabs
Put plainly: Safetyscreen: Glucocorticoid. It counts as binding. To be noted: read-out: % Inh. Glucocorticoid.

Data set [5] has as its target T7, Serotonin (5-Hydroxytryptamine) 5-HT2B (Homo sapiens, UniProt P41595).
T7 construct: Eurofins Cereps Panlabs (contract panel)
Put plainly: Safetyscreen: 5-HT2B. It counts as binding. The settings on record: read-out: % Inh. Serotonin (5-Hydroxytryptamine) 5-HT2B.

In data set [6] the target is T8, Serotonin (5-Hydroxytryptamine) 5-HT1B (Homo sapiens, UniProt P28222).
T8 construct: Eurofins Cereps Panlabs (contract panel)
T8 sequence (P28222 whole entry): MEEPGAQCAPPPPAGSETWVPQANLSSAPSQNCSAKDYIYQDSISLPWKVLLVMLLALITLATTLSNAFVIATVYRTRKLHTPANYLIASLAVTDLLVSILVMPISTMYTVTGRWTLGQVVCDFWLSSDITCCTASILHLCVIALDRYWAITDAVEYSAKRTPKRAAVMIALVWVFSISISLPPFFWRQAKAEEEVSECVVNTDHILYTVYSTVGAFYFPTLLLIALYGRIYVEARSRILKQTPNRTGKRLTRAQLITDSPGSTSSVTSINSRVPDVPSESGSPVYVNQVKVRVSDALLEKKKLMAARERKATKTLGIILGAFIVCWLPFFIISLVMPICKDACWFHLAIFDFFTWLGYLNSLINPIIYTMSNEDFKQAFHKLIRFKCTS
Nature of the data set: Safetyscreen: 5-HT1B. It counts as binding. To be noted: read-out: % Inh. Serotonin (5-Hydroxytryptamine) 5-HT1B.

In data set [7] the test system is Glutamate, NMDA, Polyamine. Nature of the data set: Safetyscreen: NMDA, Polyamine. Format: binding, rat. To be noted: 10 μM.
A further data set concerns the target T9, Adrenergic α1D (Homo sapiens, UniProt P25100).
T9 construct: Eurofins Cerep Panlabs (contract panel)
Nature of the data set: Safetyscreen: Adrenergic α1D. To be noted: read-out: % Inh. Adrenergic α1D. Format: binding.

Data set [8] in a line: Pharmacokinetics IV and PO in CD-1 mice, plasma. Format: in vivo. The settings on record: mouse plasma. From the text:
The PK studies were done at NIH or a commercial CRO—Pharmacon using their in-house standard protocol. […] For C99, IV and PO, performed at NIH using CD-1 mice; formulation: 20% HPbCD in saline.

The target in data set [9] is T10, Peptidase, CTSG (Cathepsin G) (Homo sapiens, UniProt P08311).
T10 construct: Eurofins Cerep Panlabs (contract panel)
T10 sequence (P08311 21-244): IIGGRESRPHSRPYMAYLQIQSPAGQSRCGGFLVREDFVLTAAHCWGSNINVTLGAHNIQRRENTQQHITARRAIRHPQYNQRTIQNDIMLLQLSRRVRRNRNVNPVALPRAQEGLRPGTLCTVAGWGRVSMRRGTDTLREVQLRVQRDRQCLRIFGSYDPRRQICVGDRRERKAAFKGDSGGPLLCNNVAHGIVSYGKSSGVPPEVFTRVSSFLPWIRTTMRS
Put plainly: Safetyscreen: Cathepsin G. The settings on record: read-out: % Inh. Peptidase, CTSG (Cathepsin G). It counts as biochemical.

The mark [10] stands for this setting: intravenous administration, 2 mg/kg.

As a reminder, the Cmax is the highest concentration seen after dosing.

T7 sequence (P41595 whole entry): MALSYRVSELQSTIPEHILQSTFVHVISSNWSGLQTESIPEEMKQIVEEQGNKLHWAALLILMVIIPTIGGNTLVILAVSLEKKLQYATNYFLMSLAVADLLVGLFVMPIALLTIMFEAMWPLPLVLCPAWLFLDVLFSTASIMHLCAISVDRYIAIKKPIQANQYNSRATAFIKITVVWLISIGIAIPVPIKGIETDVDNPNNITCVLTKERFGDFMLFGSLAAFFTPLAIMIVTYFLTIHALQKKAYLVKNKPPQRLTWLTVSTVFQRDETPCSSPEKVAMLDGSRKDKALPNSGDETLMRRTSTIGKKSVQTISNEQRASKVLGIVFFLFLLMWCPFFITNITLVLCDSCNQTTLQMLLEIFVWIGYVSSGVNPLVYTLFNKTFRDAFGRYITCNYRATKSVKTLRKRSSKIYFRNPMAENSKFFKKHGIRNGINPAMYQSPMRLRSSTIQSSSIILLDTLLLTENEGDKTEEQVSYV
T2 sequence (P06213 28-1382): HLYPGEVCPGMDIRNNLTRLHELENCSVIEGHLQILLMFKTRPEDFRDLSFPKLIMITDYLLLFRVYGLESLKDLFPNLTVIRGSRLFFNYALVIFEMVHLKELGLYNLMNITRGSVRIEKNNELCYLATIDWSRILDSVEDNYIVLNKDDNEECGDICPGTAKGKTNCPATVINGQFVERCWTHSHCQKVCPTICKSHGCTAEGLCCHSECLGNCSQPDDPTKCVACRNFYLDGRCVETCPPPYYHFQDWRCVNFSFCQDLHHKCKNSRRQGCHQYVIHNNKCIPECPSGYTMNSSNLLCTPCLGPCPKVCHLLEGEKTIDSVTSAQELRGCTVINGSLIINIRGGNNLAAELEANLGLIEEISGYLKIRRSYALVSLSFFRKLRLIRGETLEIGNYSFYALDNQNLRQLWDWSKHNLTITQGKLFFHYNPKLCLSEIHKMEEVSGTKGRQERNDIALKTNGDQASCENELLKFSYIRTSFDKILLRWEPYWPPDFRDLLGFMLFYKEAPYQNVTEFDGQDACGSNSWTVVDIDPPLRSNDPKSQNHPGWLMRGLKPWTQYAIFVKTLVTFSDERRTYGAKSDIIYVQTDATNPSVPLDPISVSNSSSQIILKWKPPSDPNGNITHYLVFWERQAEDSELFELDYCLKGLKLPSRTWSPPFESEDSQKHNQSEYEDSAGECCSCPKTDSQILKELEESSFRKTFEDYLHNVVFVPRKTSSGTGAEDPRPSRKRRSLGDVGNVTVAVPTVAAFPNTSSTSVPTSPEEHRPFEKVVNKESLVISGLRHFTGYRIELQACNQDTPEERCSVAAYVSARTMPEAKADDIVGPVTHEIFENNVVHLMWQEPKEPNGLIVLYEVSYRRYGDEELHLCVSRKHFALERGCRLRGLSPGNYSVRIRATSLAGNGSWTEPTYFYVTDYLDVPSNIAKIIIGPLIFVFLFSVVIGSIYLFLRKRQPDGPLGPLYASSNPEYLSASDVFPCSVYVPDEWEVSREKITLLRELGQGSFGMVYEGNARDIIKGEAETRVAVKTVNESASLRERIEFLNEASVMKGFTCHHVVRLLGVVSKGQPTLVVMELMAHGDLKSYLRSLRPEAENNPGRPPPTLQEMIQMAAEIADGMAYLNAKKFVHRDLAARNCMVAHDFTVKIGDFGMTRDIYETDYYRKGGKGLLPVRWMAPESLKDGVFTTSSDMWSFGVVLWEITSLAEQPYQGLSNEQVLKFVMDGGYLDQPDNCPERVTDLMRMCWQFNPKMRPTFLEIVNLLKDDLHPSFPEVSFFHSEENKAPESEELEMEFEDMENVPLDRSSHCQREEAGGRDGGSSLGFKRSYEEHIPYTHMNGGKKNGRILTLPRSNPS
T6 sequence (P04150 whole entry): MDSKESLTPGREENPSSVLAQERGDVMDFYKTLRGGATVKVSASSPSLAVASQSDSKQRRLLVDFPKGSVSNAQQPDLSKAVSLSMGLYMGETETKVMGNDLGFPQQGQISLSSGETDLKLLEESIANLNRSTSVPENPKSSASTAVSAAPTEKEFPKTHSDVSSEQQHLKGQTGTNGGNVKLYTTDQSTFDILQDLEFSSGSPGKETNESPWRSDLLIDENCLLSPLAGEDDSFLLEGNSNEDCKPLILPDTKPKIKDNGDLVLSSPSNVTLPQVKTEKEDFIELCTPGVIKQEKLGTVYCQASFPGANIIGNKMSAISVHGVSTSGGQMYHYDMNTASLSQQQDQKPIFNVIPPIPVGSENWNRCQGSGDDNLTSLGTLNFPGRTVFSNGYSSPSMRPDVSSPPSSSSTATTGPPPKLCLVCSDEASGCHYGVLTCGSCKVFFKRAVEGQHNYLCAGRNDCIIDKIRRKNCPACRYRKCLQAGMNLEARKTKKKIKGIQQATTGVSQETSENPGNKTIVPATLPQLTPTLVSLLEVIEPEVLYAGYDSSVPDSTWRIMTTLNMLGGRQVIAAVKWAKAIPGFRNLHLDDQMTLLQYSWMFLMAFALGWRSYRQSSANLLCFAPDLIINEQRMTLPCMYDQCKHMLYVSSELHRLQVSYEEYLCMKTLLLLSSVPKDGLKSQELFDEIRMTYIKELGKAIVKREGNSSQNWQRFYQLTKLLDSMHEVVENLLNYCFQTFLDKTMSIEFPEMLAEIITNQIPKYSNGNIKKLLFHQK

For the compound `CS(=O)(=O)N1CCN(C(=O)c2cnc3ccc(F)cc3c2N2CCC(C#N)(c3ccccc3)CC2)CC1` [Compound C-86, 1-(6-fluoro-3-(4-(methylsulfonyl)piperazine-1-carbonyl)quinolin-4-yl)-4-phenylpiperidine-4-carbonitrile], the inhibition at 10 µM on Adrenergic α1B was 6%; in [1], 0%; in data set [2] it was 5%; in [3] it was 36%; in data set [4], -6%; on Glucocorticoid, 9%. Moreover, the inhibition at 10 µM in data set [5] was -5%; in data set [6], -21%; on Adrenergic α1D it was 6%; in [9] it was 0%. Moreover, the “RALDH activity, Aldered assay, in HCC cells” value with SNU398 human HCC cells (FIGS. 7-8) is on record as “significantly reduced RALDH activity”. Besides, the “RALDH activity as detected by Aldered (Aldefluor) assay” value with SNU398 human HCC cells (SNU398 cells in vitro, 100 nM, DMSO control) is given as “abrogated”. In the data set on Phosphodiesterase PDE3, the “% Inh. Phosphodiesterase PDE3” value was −23%. Besides, the “% Inh. Glutamate, NMDA, Polyamine” value in [7] is given as 1%. Besides, the “AUC0-∞” value came out at 1141 ng·h/mL in data set [8] (setting [10]) and 2518 ng·h/mL in data set [8] (oral administration, 10 mg/kg). The highest concentration (Cmax) in data set [8] (setting [10]) amounted to 2350 ng/mL; in data set [8] (oral administration, 10 mg/kg), 1234 ng/mL. The compound further displayed a Vss in data set [8] (setting [10]) of 0.7 L/kg. The compound also had a F in [8] (oral administration, 10 mg/kg) of 44%.

The values are drawn from patent publication US20260248799A1, “COMBINATIONS OF RETINALDEHYDE DEHYDROGENASE 1 (RALDH1) INHIBITORS AND IMMUNOSTIMULATORS AND METHODS USING SAME” (The Trustees of the University of Pennsylvania, priority 2023, published 2026).
